Assay [1] concerns the target T1, Androgen Receptor (Homo sapiens, UniProt P10275+P40337, T878A).
T1 construct: Compounds have been evaluated in this assay in LNCaP and/or VCaP cells utilizing similar protocols; endogenous in cells; host or cells: LNCaP cells
Description: Androgen Receptor ELISA assay (PathScan AR ELISA) in LNCaP cells: AR degradation, Dmax and DC50. As to conditions: for DC50: concentration that caused 50% Androgen Receptor degradation. The class given is cell-based. (An ELISA detects its analyte on a solid surface through an enzyme-linked reagent.)

Assay [2] has as its target T2, Androgen Receptor (Homo sapiens, UniProt P10275).
T2 construct: endogenous in cells; host or cells: VCaP cells
T2 sequence (P10275 1-920): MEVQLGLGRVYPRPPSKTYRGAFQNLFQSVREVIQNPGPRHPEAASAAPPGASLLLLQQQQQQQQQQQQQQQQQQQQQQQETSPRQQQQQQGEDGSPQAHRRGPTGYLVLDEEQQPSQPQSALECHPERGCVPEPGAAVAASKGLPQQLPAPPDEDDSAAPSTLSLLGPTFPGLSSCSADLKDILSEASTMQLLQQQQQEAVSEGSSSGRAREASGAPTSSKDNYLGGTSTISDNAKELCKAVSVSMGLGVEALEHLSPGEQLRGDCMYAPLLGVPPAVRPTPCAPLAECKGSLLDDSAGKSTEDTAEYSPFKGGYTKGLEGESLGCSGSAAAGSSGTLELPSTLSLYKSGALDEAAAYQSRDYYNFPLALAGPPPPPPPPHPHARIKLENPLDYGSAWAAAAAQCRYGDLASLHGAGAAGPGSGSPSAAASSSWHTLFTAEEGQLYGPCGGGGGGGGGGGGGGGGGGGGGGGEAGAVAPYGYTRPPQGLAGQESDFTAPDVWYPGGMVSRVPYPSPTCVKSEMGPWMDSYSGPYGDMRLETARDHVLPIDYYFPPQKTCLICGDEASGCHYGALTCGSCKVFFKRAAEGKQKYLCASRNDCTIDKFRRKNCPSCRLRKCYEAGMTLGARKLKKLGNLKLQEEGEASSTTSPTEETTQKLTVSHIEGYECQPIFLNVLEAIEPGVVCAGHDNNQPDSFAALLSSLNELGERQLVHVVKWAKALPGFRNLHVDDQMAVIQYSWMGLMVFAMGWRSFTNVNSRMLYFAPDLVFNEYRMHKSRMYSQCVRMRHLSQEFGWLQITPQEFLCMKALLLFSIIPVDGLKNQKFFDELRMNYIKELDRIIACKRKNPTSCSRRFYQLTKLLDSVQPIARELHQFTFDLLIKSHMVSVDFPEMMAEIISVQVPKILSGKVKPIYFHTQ
Description: Androgen Receptor ELISA assay (PathScan AR ELISA) in VCaP cells: AR degradation, Dmax and DC50. The class given is cell-based. In outline: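 VCaP cells in phenol red-free RPMI with 5% charcoal-stripped FBS were grown at least 3 days, then given compound as 7 half-log doses in 0.1% DMSO with 0.1 nM R1881 for 24 h. Lysates went into a sandwich AR ELISA with TMB read at 450 nm.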

The mark [3] stands for this setting: highest percentage of Androgen Receptor degradation observed.
Where [4] appears, read: read-out: VCaP DC50; concentration that caused 50% Androgen Receptor degradation, VCaP cells.
[5] abbreviates: highest percentage of Androgen Receptor degradation.

The values that follow come from patent publication US11427548B2 (Arvinas Operations, Inc., priority 2015, dated 2022).

Read-outs that look alike come from different tables or passages of the source.

T1 sequence (P10275 whole entry T878A): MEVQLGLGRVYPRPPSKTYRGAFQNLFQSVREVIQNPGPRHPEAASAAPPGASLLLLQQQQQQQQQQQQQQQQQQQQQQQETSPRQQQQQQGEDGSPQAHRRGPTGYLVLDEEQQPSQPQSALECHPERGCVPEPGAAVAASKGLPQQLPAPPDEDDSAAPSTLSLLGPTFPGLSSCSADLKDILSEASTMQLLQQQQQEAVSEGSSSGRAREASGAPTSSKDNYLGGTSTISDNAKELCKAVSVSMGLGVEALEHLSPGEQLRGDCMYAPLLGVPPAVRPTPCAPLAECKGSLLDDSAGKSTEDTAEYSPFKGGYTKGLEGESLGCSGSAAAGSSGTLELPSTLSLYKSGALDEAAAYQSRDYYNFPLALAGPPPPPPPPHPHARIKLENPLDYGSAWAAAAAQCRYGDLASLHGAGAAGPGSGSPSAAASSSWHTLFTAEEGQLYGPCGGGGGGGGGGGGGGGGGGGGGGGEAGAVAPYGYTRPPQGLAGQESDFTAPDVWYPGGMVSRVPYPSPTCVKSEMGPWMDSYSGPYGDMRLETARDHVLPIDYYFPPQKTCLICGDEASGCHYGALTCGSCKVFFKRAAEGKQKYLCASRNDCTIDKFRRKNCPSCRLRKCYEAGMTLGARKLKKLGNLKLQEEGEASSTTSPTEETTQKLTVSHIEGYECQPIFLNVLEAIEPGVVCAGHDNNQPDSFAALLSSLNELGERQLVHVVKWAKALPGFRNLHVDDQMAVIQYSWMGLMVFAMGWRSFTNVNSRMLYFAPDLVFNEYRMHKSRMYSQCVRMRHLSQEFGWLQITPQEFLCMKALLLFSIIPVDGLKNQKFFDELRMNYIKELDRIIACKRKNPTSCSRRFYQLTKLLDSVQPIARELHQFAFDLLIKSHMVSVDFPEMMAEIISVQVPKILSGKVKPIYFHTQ
T1 sequence (P40337 whole entry): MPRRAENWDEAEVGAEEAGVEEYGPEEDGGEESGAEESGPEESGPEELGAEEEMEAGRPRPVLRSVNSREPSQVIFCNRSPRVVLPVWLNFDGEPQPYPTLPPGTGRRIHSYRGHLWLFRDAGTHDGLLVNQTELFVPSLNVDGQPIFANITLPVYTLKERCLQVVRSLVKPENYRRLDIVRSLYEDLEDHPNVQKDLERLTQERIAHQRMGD
T1 sequence (Q15369 whole entry partner): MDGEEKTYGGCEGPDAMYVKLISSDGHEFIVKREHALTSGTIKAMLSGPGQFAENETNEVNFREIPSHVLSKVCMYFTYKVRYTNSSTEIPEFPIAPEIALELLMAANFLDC
T1 sequence (Q15370 whole entry partner): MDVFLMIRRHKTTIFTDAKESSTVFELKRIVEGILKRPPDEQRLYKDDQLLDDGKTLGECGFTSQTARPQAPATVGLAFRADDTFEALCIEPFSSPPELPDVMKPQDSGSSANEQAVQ

With `Cc1ncsc1-c1ccc(CNC(=O)[C@@H]2C[C@@H](O)CN2C(=O)[C@@H](NC(=O)COCCCOCCCCCOc2ccc(N3C(=S)N(c4cnc(C#N)c(C(F)(F)F)c4)C(=O)C3(C)C)cc2)C(C)(C)C)cc1` [Example 2, (2S,4R)-1-((S)-2-(2-(3-(5-(4-(3-(6-cyano-5-(trifluoromethyl)pyridin-3-yl)-5,5-dimethyl-4-oxo-2-thioxoimidazolidin-1-yl)phenoxy)pentyloxy)propoxy)acetamido)-3,3-dimethylbutanoyl)-4-hydroxy-N-(4-(4-methylthiazol-5-yl)benzyl)pyrrolidine-2-carboxamide], the greatest degradation seen (Dmax) (commonly the largest share of the target that was removed) at Androgen Receptor [1] (setting [3]) is above 71%; on Androgen Receptor [2] (VCaP, read-out: VCaP Dmax (%)), 51 to 70%. Besides, at Androgen Receptor [2] (concentration that caused 50% Androgen Receptor degradation, VCaP cells; read-out: VCaP DC50), the DC50 (in general, the concentration giving 50% degradation) was below 50 nM.
On to `Cc1ncsc1-c1ccc([C@H](C)NC(=O)[C@@H]2C[C@@H](O)CN2C(=O)[C@@H](NC(=O)COCCCOCCCCCOc2ccc(N3C(=S)N(c4ccc(C#N)c(C(F)(F)F)c4)C(=O)C3(C)C)cc2)C(C)(C)C)cc1` [Example 4, (2S,4R)-1-[(2S)-2-[2-(3-{[5-(4-{3-[4-cyano-3-(trifluoromethyl)phenyl]-5,5-dimethyl-4-oxo-2-sulfanylideneimidazolidin-1-yl}phenoxy)pentyl]oxy}propoxy)acetamido]-3,3-dimethylbutanoyl]-4-hydroxy-N-[(1S)-1-[4-(4-methyl-1,3-thiazol-5-yl)phenyl]ethyl]pyrrolidine-2-carboxamide], for which the half-maximal degradation concentration (DC50) on Androgen Receptor [1] and on Androgen Receptor [2] (setting [4]) was below 50 nM each time. Besides, the Dmax was above 71% at Androgen Receptor [1] (setting [3]) and 51 to 70% on Androgen Receptor [2] (VCaP, read-out: VCaP Dmax (%)).
Regarding `Cc1ncsc1-c1ccc(CNC(=O)[C@@H]2C[C@@H](O)CN2C(=O)[C@@H](NC(=O)COCCCOCCCCCOc2ccc(N3C(=S)N(c4ccc(C#N)c(Cl)c4)C(=O)C3(C)C)cc2)C(C)(C)C)cc1` [Example 8], the DC50 on Androgen Receptor [1] and on Androgen Receptor [2] (setting [4]) was below 50 nM each time. The Dmax was above 71% on Androgen Receptor [1] (setting [3]) and 51 to 70% on Androgen Receptor [2] (VCaP, read-out: VCaP Dmax (%)).
Take `Cc1ncsc1-c1ccc([C@H](C)NC(=O)[C@@H]2C[C@@H](O)CN2C(=O)[C@@H](NC(=O)COCCCOCCCCCOc2ccc(N3C(=S)N(c4ccc(C#N)c(C(F)(F)F)c4)C(=O)C3(C)C)cc2F)C(C)(C)C)cc1` [Example 10, (2S,4R)-1-[(2S)-2-[2-(3-{[5-(4-{3-[4-cyano-3-(trifluoromethyl)phenyl]-5,5-dimethyl-4-oxo-2-sulfanylideneimidazolidin-1-yl}-2-fluorophenoxy)pentyl]oxy}propoxy)acetamido]-3,3-dimethylbutanoyl]-4-hydroxy-N-[(1S)-1-[4-(4-methyl-1,3-thiazol-5-yl)phenyl]ethyl]pyrrolidine-2-carboxamide]: the DC50 at Androgen Receptor [1] and at Androgen Receptor [2] (setting [4]) was below 50 nM throughout. Also, the greatest degradation seen (Dmax) was above 71% on Androgen Receptor [1] (setting [3]) and 51 to 70% at Androgen Receptor [2] (VCaP, read-out: VCaP Dmax (%)).
As to `Cc1ncsc1-c1ccc(CNC(=O)[C@@H]2C[C@@H](O)CN2C(=O)[C@H](C(C)C)N2Cc3ccccc3C2=O)c(OCCO[C@@H]2CCC[C@@H]2OCCOc2ccc(N3C(=S)N(c4ccc(C#N)c(C(F)(F)F)c4)C(=O)C3(C)C)cc2)c1` [Example 304], at Androgen Receptor [1], the 50% degradation concentration (DC50) is 51 to 500 nM. On Androgen Receptor [1] (setting [5]), this molecule came in with a Dmax of 26 to 50%.
For `Cc1ncsc1-c1ccc(CNC(=O)[C@@H]2C[C@@H](O)CN2C(=O)[C@@H](NC(=O)CC(=O)CCCOCCCCCOc2ccc(N3C(=S)N(c4ccc(C#N)c(C(F)(F)F)c4)C(=O)C3(C)C)cc2)C(C)(C)C)cc1` [Example 305], in that order: 51 to 500 nM and 51 to 70%.
